Source: PubChem BioAssay AID1963825 (Molecular Pharmacology Branch, DTP, NCI, 2024)

Assay: Anticancer human tumor 997537-175-T-J1-PDC patient-derived colon adenocarcinoma cell line growth inhibition [POLQ]
Conditions: 997537-175-T-J1-PDC complex spheroid viability, combination with POLQ inhibitors; for IC50: curve of first compound; for viability, T/C: stronger effect = lower value
Summary of the method: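 Three-cell-type spheroids modelling solid tumor plus stroma served as the readout system; POL inhibitors were tested individually and in combination, concentration ranges set by clinical Cmax where known.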

[1] = second compound 0.0316 µM, first compound 0.0316 µM
[2] = second compound 0.0316 µM, first compound 0.1 µM
[3] = second compound 0.0316 µM, first compound 0.316 µM
[4] = second compound 0.0316 µM, first compound 1 µM
[5] = second compound 0.0316 µM, first compound 3.16 µM
[6] = second compound 0.0316 µM, first compound 10 µM
[7] = second compound 0.1 µM, first compound 0.0316 µM
[8] = second compound 0.1 µM, first compound 0.1 µM
[9] = second compound 0.1 µM, first compound 0.316 µM
[10] = second compound 0.1 µM, first compound 1 µM
[11] = second compound 0.1 µM, first compound 3.16 µM
[12] = second compound 0.1 µM, first compound 10 µM
[13] = second compound 0.316 µM, first compound 0.0316 µM
[14] = second compound 0.316 µM, first compound 0.1 µM
[15] = second compound 0.316 µM, first compound 0.316 µM
[16] = second compound 0.316 µM, first compound 1 µM
[17] = second compound 0.316 µM, first compound 3.16 µM
[18] = second compound 0.316 µM, first compound 10 µM
[19] = second compound 1 µM, first compound 0.0316 µM
[20] = second compound 1 µM, first compound 0.1 µM
[21] = second compound 1 µM, first compound 0.316 µM
[22] = second compound 1 µM, first compound 1 µM
[23] = second compound 1 µM, first compound 3.16 µM
[24] = second compound 1 µM, first compound 10 µM
[25] = second compound 3.16 µM, first compound 0.0316 µM
[26] = second compound 3.16 µM, first compound 0.1 µM
[27] = second compound 3.16 µM, first compound 0.316 µM
[28] = second compound 3.16 µM, first compound 1 µM
[29] = second compound 3.16 µM, first compound 3.16 µM
[30] = second compound 3.16 µM, first compound 10 µM
[31] = second compound 10 µM, first compound 0.0316 µM
[32] = second compound 10 µM, first compound 0.1 µM
[33] = second compound 10 µM, first compound 0.316 µM
[34] = second compound 10 µM, first compound 1 µM
[35] = second compound 10 µM, first compound 3.16 µM
[36] = second compound 10 µM, first compound 10 µM
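Also: luminescence signal used as a surrogate for viable cells; spheroids exposed to drugs for seven days before readout.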

In the case of `C#Cc1c(F)ccc2cc(O)cc(-c3ncc4c(N5CC6CCC(C5)N6)nc(OCC56CCCN5CC(F)C6)nc4c3F)c12` (stereo unspecified) + Cc1cccc(N(C)C(=O)C2C(O)CCN2c2nc(C)cc(C(F)(F)F)c2C#N)c1, the IC50 (second compound 0.0316 µM) is reported as over 10 µM, the IC50 (second compound 0.1 µM) is reported as over 10 µM and the IC50 (second compound 0.316 µM) is reported as over 10 µM. It also gave an IC50 (second compound 1 µM) of over 10 µM, an IC50 (second compound 3.16 µM) of over 10 µM and an IC50 (second compound 10 µM) of over 10 µM. For the same compound, the viability, T/C [1] was 95.2%, the viability, T/C [2] was 106% and the viability, T/C [3] was 89.2%. It also gave a viability, T/C [4] of 107%, a viability, T/C [5] of 108% and a viability, T/C [6] of 109%. The viability, T/C [7] was 99.2%, the viability, T/C [8] was 102% and the viability, T/C [9] was 98.2%. The viability, T/C [10] was 104%, the viability, T/C [11] was 104% and the viability, T/C [12] was 108%. It also gave a viability, T/C [13] of 106%, a viability, T/C [14] of 106% and a viability, T/C [15] of 91.6%. It also gave a viability, T/C [16] of 91.7%, a viability, T/C [17] of 121% and a viability, T/C [18] of 105%. For the same compound, the viability, T/C [19] was 109%, the viability, T/C [20] was 107% and the viability, T/C [21] was 111%. The viability, T/C [22] was 100%, the viability, T/C [23] was 98.5% and the viability, T/C [24] was 102%. The viability, T/C [25] was 106%, the viability, T/C [26] was 83.5% and the viability, T/C [27] was 101%. It also gave a viability, T/C [28] of 112%, a viability, T/C [29] of 101% and a viability, T/C [30] of 104%. The viability, T/C [31] was 99.8%, the viability, T/C [32] was 88.6% and the viability, T/C [33] was 101%. For the same compound, the viability, T/C [34] was 119%, the viability, T/C [35] was 94.1% and the viability, T/C [36] was 89%.
`CCc1cc2c(N3CCc4c(cc(Cn5ccnc5)cc4-c4cn(C)nc4C(F)(F)F)C3=O)ccnc2c(OC)n1` + Cc1cccc(N(C)C(=O)C2C(O)CCN2c2nc(C)cc(C(F)(F)F)c2C#N)c1 gave an IC50 (second compound 0.0316 µM) of over 10 µM, an IC50 (second compound 0.1 µM) of over 10 µM and an IC50 (second compound 0.316 µM) of over 10 µM. For the same compound, the IC50 (second compound 1 µM) was over 10 µM, the IC50 (second compound 3.16 µM) was over 10 µM and the IC50 (second compound 10 µM) was over 10 µM. The viability, T/C [1] was 104%, the viability, T/C [2] was 107% and the viability, T/C [3] was 90.7%. For the same compound, the viability, T/C [4] was 93.2%, the viability, T/C [5] was 90.6% and the viability, T/C [6] was 73.4%. For the same compound, the viability, T/C [7] was 110%, the viability, T/C [8] was 110% and the viability, T/C [9] was 94.8%. For the same compound, the viability, T/C [10] was 95.5%, the viability, T/C [11] was 71% and the viability, T/C [12] was 58.3%. The viability, T/C [13] was 107%, the viability, T/C [14] was 108% and the viability, T/C [15] was 86.2%. It also gave a viability, T/C [16] of 72%, a viability, T/C [17] of 78.5% and a viability, T/C [18] of 65.5%. For the same compound, the viability, T/C [19] was 95.9%, the viability, T/C [20] was 104% and the viability, T/C [21] was 100%. The viability, T/C [22] was 83.3%, the viability, T/C [23] was 64.9% and the viability, T/C [24] was 66.5%. It also gave a viability, T/C [25] of 83.9%, a viability, T/C [26] of 86.9% and a viability, T/C [27] of 96.3%. It also gave a viability, T/C [28] of 81.5%, a viability, T/C [29] of 81.7% and a viability, T/C [30] of 70.1%. It also gave a viability, T/C [31] of 87.8%, a viability, T/C [32] of 92.7% and a viability, T/C [33] of 79.5%. It also gave a viability, T/C [34] of 67.1%, a viability, T/C [35] of 64.1% and a viability, T/C [36] of 75.2%.
Work on `COc1ccc([C@@H](O)c2cc(-c3ncnc4cc(N5CCOCC5)ccc34)c(F)cc2Cl)nn1` + Cc1cccc(N(C)C(=O)C2C(O)CCN2c2nc(C)cc(C(F)(F)F)c2C#N)c1 yielded an IC50 (second compound 0.0316 µM) of over 10 µM, an IC50 (second compound 0.1 µM) of over 10 µM and an IC50 (second compound 0.316 µM) of over 10 µM. The IC50 (second compound 1 µM) was over 10 µM, the IC50 (second compound 3.16 µM) was over 10 µM and the IC50 (second compound 10 µM) was over 10 µM. It also gave a viability, T/C [1] of 102%, a viability, T/C [2] of 108% and a viability, T/C [3] of 103%. The viability, T/C [4] was 108%, the viability, T/C [5] was 101% and the viability, T/C [6] was 84.3%. It also gave a viability, T/C [7] of 92.3%, a viability, T/C [8] of 111% and a viability, T/C [9] of 99.8%. For the same compound, the viability, T/C [10] was 106%, the viability, T/C [11] was 101% and the viability, T/C [12] was 77.7%. For the same compound, the viability, T/C [13] was 104%, the viability, T/C [14] was 109% and the viability, T/C [15] was 106%. It also gave a viability, T/C [16] of 104%, a viability, T/C [17] of 95.3% and a viability, T/C [18] of 82.9%. The viability, T/C [19] was 98.5%, the viability, T/C [20] was 102% and the viability, T/C [21] was 91.7%. The viability, T/C [22] was 109%, the viability, T/C [23] was 85.7% and the viability, T/C [24] was 69.7%. For the same compound, the viability, T/C [25] was 80.8%, the viability, T/C [26] was 93.4% and the viability, T/C [27] was 110%. For the same compound, the viability, T/C [28] was 106%, the viability, T/C [29] was 88.8% and the viability, T/C [30] was 72.7%. For the same compound, the viability, T/C [31] was 101%, the viability, T/C [32] was 109% and the viability, T/C [33] was 110%. For the same compound, the viability, T/C [34] was 112%, the viability, T/C [35] was 107% and the viability, T/C [36] was 69.8%.
